Source: patent publication US11974551B2, “L-serine compositions, methods and uses for treating neurodegenerative diseases and disorders” (priority 2011, dated 2024)
Entries after “also recorded” stand apart in the source; their conditions may differ.

How the values were obtained:
[1] = tested on: MRC-5 cells; assay: Incorporation of 3H-BMAA radiolabel into cell proteins (TCA precipitation, liquid scintillation counting); type: cell-based, human; conditions: 16 hours
Protocol: MRC-5 cells were incubated with ^3H-BMAA (31.25 nM) in HBSS containing 10% FCS. After 2, 4, and 16 hours, cells were washed three times in phosphate buffered saline and lysed by freeze-thawing in Triton X-100. The protein concentration in the lysate was determined using the bicinchoninic acid assay (BCA) (Smith, et al., Anal Biochem 150, 76-85 (1985)) (and radiolabel in the cell lysate quantified by liquid scintillation counting (LSC). Cell proteins were then isolated by trichloroacetic acid (TCA) (5%) precipitation washed three times in TCA (5%) and dissolved in formic acid.
(§1) To determine if incorporation of radiolabel into proteins was protein synthesis dependent MRC-5, SH-SY5Y and HUVEC cells were incubated with ^3H-BMAA (31.25 nM) with or without CHX 2 μg/ml for 16 hours. The amount of radiolabel present in cell proteins in the CHM-treated cultures was expressed relative to that of control cultures, which was set at 100%. Parallel cultures of MRC-5 cells were incubated with ^3H-leucine (41 nM) with or without CHX 2 μg/ml under identical culture conditions and processed as before.
To examine the ability of individual amino acids to reduce incorporation or radiolabel into proteins, MRC-5 cells were incubated with ^3H-BMAA (31.25 nM) for 16 hours in the presence of individual amino acids (250 μM) and the radiolabel present in the cell proteins assessed as before. All of the 20 protein amino acids (L-isomers) were examined individually in triplicate cell cultures. […] Incorporation of radiolabel was determined relative to cells incubated in medium containing no serine. MRC-5 cells were then incubated with ^3H-BMAA (31.25 nM) for 16 hours in HBSS alone, HBSS containing all 20 protein amino acids (400 μM) or 19 protein amino acids except L-serine and the amount of radiolabel in cell protein assessed as before.

[2] = mice, single injection (Karlsson et al. 2009); cited from earlier work
[3] = tested on: zebrafish; assay: Zebrafish motor neuron development (fluorescent microscopy); type: in vivo, zebrafish (Dario rerio); conditions: eggs injected with L-BMAA, 30 hours; motor neuron length vs control P<0.0001
Protocol: (§2) BMAA was directly injected through the chorion into the yolk, allowing it to directly compete with L-serine for incorporation into newly synthesized proteins in the developing fish. BMAA (100 mg/ml in water) or water were delivered by an automated Picospritzer pump set to deliver 5 nL per injection into the yolk ([…]) of zebrafish immediately after being fertilized. Fish were left to develop for 30 hours in standard conditions.
(§3) Surviving fish were reared in an aquarium equipped with biological filtration and temp control set at 28° C. for 3 months. BMAA-treated and control fish from the same parents were reared in the same tanks, then separated based on fluorescent tag prior to swimming assessment. After 3 months all healthy adult fish with no deformations or abnormalities were examined. Critical swimming speed was determined, defined as the maximum swimming velocity that can be sustained for a set period in a water tunnel. Water was pumped from a reservoir (EcoTech Marine MP10 VorTech® Propeller Pump with EcoSmart Driver) through 50 mm diameter tubing. […] The difference in total motor neuron length was quantitated by measuring the first ten motor neuron projections marked before the end of the yolk extension (Paquet D. et al., J. Clin. Invest. 119:1382 (2009)). […] Data was collated in GraphPad Prism (version 6 for OSX) and statistical significance calculated using a Student's T-test. […]

[4] = tested on: zebrafish; assay: Zebrafish swimming performance (critical swimming speed, time to fail); type: in vivo, zebrafish (Dario rerio); conditions: single yolk injection of BMAA, fish reared 3 months, compared to control fish, p<0.001
Protocol: as §2, §3

[5] = tested on: MRC-5 cells; assay: Autofluorescence imaging of cells; type: cell-based, human; conditions: BMAA 300 μM, 96 hours
Protocol: MRC-5 cells were incubated in DMEM supplemented with 300 μM BMAA in the presence or absence of 300 μM L-serine for 96 hours with daily medium changes. Cellular autofluorescence was visualized using an inverted fluorescent microscope (Olympus IX71) as described previously (Dunlop, et al., Biochem J 410, 131-140 (2008)).

[6] = tested on: MRC-5 cells; assay: Lactate dehydrogenase (LDH) release assay; type: cell-based, human; conditions: BMAA-treated cells
Protocol: (§4) Lactate dehydrogenase release from cells was determined as described previously (Tang, et al., Phytother Res 25, 417-423 (2010)).

[7] = tested on: SH-SY5Y cells; assay: Lactate dehydrogenase (LDH) release assay; type: cell-based, human; conditions: BMAA-treated cells
Protocol: as §4

[8] = tested on: SH-SY5Y cells; assay: Annexin V binding (apoptosis) by flow cytometry; type: cell-based, human
Protocol: Late-stage apoptosis or necrosis was measured by simultaneous staining with propidium iodide and Annexin V using the BD Pharmingen™ Annexin V—FITC apoptosis detection kit and flow cytometry performed as described previously (Dunlop, et al., Biochem J 435, 207-216 (2010)).

[9] = tested on: zebrafish; assay: Zebrafish egg yolk injection: survival; type: in vivo, zebrafish (Dario rerio); conditions: BMAA 100 mg/ml in water, 5 nL injected into yolk after fertilization, 30 hours; control 91%
Protocol: as §2

[10] = tested on: MRC-5 cells; assay: Acridine orange/ethidium bromide dual-staining of cells; type: cell-based, human; conditions: 500 μM BMAA, 23 hours
Protocol: MRC-5 cells were incubated in the presence and absence of 500 μM BMAA for 23 hours. After removing the medium, the cells were rinsed once with warm PBS and incubated in a solution of AO/EB then visualized using fluorescent microscopy as described previously (Tang, et al., Phytother Res 25, 417-423 (2010)).

[11] = tested on: Drosophila fruit flies; assay: Fruit fly feeding: mortality after three days; type: in vivo, Drosophila melanogaster; conditions: media with 25 mM BMAA, after three days
Protocol: Preliminary studies show the ability of L-Serine to prevent misincorporation of BMAA into proteins. In a series of feeding experiments, Drosophila fruit flies were fed four different types of media: 1) standard fruit fly media with 0 mM BMAA (control), 2) media enriched with 25 mM L-Serine, 3) media with 25 mM BMAA added, and 4) media with both 25 mM BMAA and 25 mM L-Serine added for three days of feeding. Misincorporation of BMAA into proteins was then analyzed using triple quadrupole LC/MS/MS and Orbital Trap LC/MS/MS.
Equally interesting is the analysis of the protective value of L-Serine on Drosophila dosed with BMAA. Fruit flies fed with BMAA enriched media (third set of blocks) suffered a 40% mortality after three days, while flies fed with Serine plus BMAA (fourth set of blocks) had no mortality (FIG. 8). These flies were rescued by L-Serine.

[12] = Radio-labeled BMAA brain entry and insertion into neuroproteins; type: in vivo; conditions: tritiated and 14C-labeled BMAA, rats
Source text: Studies testing to determine if L-Serine blocks the misincorporation of radio-tagged BMAA into rodent brains are undertaken.

[13] = tested on: HUVEC; assay: Incorporation of 3H-BMAA radiolabel into cell proteins with or without CHX; type: cell-based, human; conditions: 3H-BMAA 31.25 nM, CHX 2 μg/ml, 16 hours
Protocol: (§5) MRC-5 cells, a human lung fibroblast cell line (passage number 14-19), and SH-SY5Y cells, a human neuroblastoma cell-line (passage number 30-32), were maintained in DMEM, or DMEM/Hams F12 respectively containing 10% fetal bovine serum (FBS), 4 mM L-glutamine, 100 U/mL penicillin, and 100 μg/mL streptomycin at 37° C. in a humidified atmosphere of 5% CO2 and 95% air. Human umbilical vein endothelial cells (HUVEC) were harvested enzymatically with type II collagenase (Sigma-Aldrich) under sterile conditions as described by Minter (Minter, et al., Thromb Haemost 67, 718-723 (1992)) and established as primary cell cultures in M199 (Trace Biosciences, Sydney, Australia) containing 20% FBS, 4 mM L-glutamine, 0.5% endothelial cell growth promoter, 100 U/mL penicillin, and 100 μg/mL streptomycin. All media were prepared with endotoxin-free water (Baxter) and filtered with Zetapor filters (Cuno Life Sciences Division). Cells were seeded at 3×10^5 cells per well in 6 well plates and allowed to adhere overnight (16 hours) before treatment.
as §1, with “Parallel cultures of MRC-5 cells were incubated with ^3H-leucine (41 nM) with or without CHX 2 μg/ml under identical culture conditions and processed as before.” left out

[14] = tested on: SH-SY5Y cells; assay: as above; type: cell-based, human; conditions: 3H-BMAA 31.25 nM, CHX 2 μg/ml, 16 hours
Protocol: as §5
as §1, with “Parallel cultures of MRC-5 cells were incubated with ^3H-leucine (41 nM) with or without CHX 2 μg/ml under identical culture conditions and processed as before.” left out

[15] = tested on: MRC-5 cells; assay: Protein-bound non-labeled BMAA in hydrolysed cell proteins by triple quadrupole LC/MS/MS; type: cell-based, human; conditions: BMAA 250-1000 μM with L-serine 250-1000 μM, or CHX
Protocol: After incubation with ^3H-BMAA or cold BMAA, cells were washed three times with PBS, lysed by freeze thawing in Triton-X-100 (0.1%) and cell proteins precipitated in TCA (5%). Protein pellets were washed three times with TCA (5%) and hydrolysed in boiling 6 M HCl at 110° C. for 16 hours as previously described (Mondo, et al., Mar Drugs 10, 509-520 (2012)). Protein pellets were freeze-dried and reconstituted in 20 mM HCl. Particulates were removed by centrifugation through […] membranes and the hydrolysate derivatized in AccQ·Tag (Waters Corporation, Australia). Amino acids were separated on a Waters C-18 column using a method and gradient as described previously (Mondo, et al., Mar Drugs 10, 509-520 (2012)). For recovery of radiolabel in hydrolysed samples, fractions were collected manually every minute for 40 minutes, diluted into 5 ml scintillant (Ultima Gold™ scintillant, Perkin Elmer) and disintegrations per minute (DPM) determined by LSC.
To further confirm that BMAA was present in cell proteins and incorporation was inhibited by L-serine, MRC-5 cells were incubated with a range of concentrations of BMAA (250-1000 μM) or BMAA with L-serine (250-1000 μM) and hydrolysed cell proteins were analyzed by tandem mass spectroscopy on a triple quadrupole LC/MS/MS. […]

For `N[C@H](CO)C(=O)O` [D-Serine, D-serine], the “effect on incorporation of 3H-BMAA into protein” value ([1]; 3H-BMAA 31.25 nM, 250 μM D-serine) was “did not prevent incorporation”.
For `CNC[C@H](N)C(=O)O` [^3H-BMAA], the tissue distribution pattern [2] is listed as “a distribution pattern similar to that of a protein-forming amino acid”.
In the case of `CNC[C@H](N)C(=O)O` [BMAA, β-methylamino-L-alanine], the motor neuron development [3] was “truncated neurons”, the “swimming performance, time to fail” value [4] was “significant impairment; also recorded: impairs zebrafish swimming performance” and the “formation of autofluorescent bodies” value [5] was “autofluorescent bodies were evident; also recorded: Autofluorescence was observed”. For the same compound, the “necrosis, LDH release” value [6] was “no significant changes”, the “necrosis, LDH release” value [7] was “no significant changes” and the “Annexin V staining (apoptosis)” value ([8]; 500 μM BMAA alone) was “increased staining; also recorded: significant increase”. The “zebrafish viability (survival)” value [9] was 74%, the “morphological changes and pale cells indicative of apoptosis” value [10] was “increased number; also recorded: morphological changes” and the mortality [11] was 40%. The “crossing of the blood-brain barrier” value [12] was “rapidly cross the blood-brain barrier” and the insertion into neuroproteins [12] was “inserted into neuroproteins”.
For `C[C@@H]1C[C@@H]([C@H](O)CC2CC(=O)NC(=O)C2)C(=O)[C@@H](C)C1` [CHX, cycloheximide], the “effect on amount of 3H-BMAA radiolabel in the protein fraction” value ([1]; 3H-BMAA 31.25 nM, CHX 2 μg/ml, relative to no CHX) was “significantly reduced; also recorded: inhibition of incorporation of radiolabel into cell protein”, the “inhibition of incorporation of 3H-leucine into proteins, compared with 3H-BMAA” value ([1]; 3H-leucine 41 nM, CHX 2 μg/ml) was “to the same extent” and the “effect on protein association of 3H-BMAA” value [13] was “inhibited”. For the same compound, the “effect on protein association of 3H-BMAA” value [14] was “inhibited”, the “effect on BMAA-induced Annexin V binding / apoptosis” value ([8]; 500 μM BMAA, co-incubation with CHX 2 μg/mL or L-serine 50 μM) was “abrogated; also recorded: significantly reduced” and the “effect on incorporation of non-labeled BMAA into cell proteins” value [15] was “inhibited”.
